Source: US10100097B2, “GIP-GLP-1 dual agonist compounds and methods” (Zealand Pharma A/S, priority 2012, dated 2018)
Numbered stars: 1 amine (or outer) side, 2 acyl side, 3 side chain; on linkers, the order of the positions; unused ones are H or OH. Square brackets hold non-standard residues; d marks the D form. Side chains are listed from the residue outwards. Peptide text beside a SMILES is read from it. * marks the point of attachment. γGlu = O=C(O)[C@H](CCC(=O)[*:2])N[*:1]; Palmitoyl = CCCCCCCCCCCCCCCC(=O)*; Aib = CC(C)(N)C(=O)O

Columns and labels:
[1] = target: T1, human GLP-1 R (Homo sapiens, UniProt P43220); assay: Human GLP-1 receptor (GLP-1 R) activity assay, cAMP induction (AlphaScreen cAMP kit); format: cell-based; conditions: HEK293 cells expressing the human GLP-1 R, 15 min at 37° C., average values of multiple determinations, read-out: GLP1 R (EC50 in nM)
T1 construct: expressed in transfected cells
T1 sequence (P43220 24-463): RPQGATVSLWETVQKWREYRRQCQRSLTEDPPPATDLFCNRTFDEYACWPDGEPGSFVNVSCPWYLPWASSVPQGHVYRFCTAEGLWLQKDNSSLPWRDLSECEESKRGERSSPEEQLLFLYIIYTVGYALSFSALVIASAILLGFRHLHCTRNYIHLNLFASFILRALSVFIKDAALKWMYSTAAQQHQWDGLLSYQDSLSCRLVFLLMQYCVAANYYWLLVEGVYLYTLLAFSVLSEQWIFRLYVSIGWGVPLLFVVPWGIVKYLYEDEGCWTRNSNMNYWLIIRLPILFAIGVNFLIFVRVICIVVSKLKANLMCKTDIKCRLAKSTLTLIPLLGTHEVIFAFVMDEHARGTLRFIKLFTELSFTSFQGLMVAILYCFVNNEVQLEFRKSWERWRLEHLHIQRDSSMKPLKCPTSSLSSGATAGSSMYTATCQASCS
How it was run: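 Stable HEK293 clones expressing human GIP R or GLP-1 R, grown 1 day, washed in Tyrode's buffer (10 mM HEPES, pH 7.4), then stimulated with peptide. Cells lysed and cAMP quantified by AlphaScreen competition with biotinylated cAMP, 1 h dark incubation at room temperature.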

[2] = in vivo; conditions: C57BL/6J, mouse, plasma, sc, 200 nmol/kg
Description: C57BL/6J mice were given a single subcutaneous dose of 200 nmol/kg body weight of each peptide to be tested. Blood samples were drawn 0.5, 2, 4, 6, 8, 16, 24 and 36 hours post-dose by sublingual bleeding. At each time point, samples from two mice were taken, i.e. 16 mice per compound. The mice were euthanized immediately after blood sampling by cervical dislocation. Plasma samples were analyzed after solid phase extraction (SPE) by liquid chromatography mass spectrometry (LC-MS/MS).

[3] = system: Male C57BL/6J mice; assay: IPGTT (Intraperitoneal Glucose Tolerance Test) in mice; format: in vivo; conditions: for Effect on glucose tolerance as compared to vehicle: glucose 2 g/kg i.p., peptides s.c., all time points, p<0.05 vs. vehicle
Description: IPGTT (Intraperitoneal Glucose Tolerance Test) in Mice
Male C57BL/6J mice (Charles River, Germany) were maintained on normal chow (Altromin 1324, Brogaarden A/S, Gentofte, Denmark) and domestic quality water with added citric acid to pH˜3.6. The animals were housed pair-wise in a light-, temperature-, and humidity-controlled room (12:12 h light-dark cycle, with lights on at 06.00-18.00 hr; 20-22° C.; 50-80% relative humidity). Mice were fasted for 5 hr before the IPGTT. Peptides and vehicle were administered subcutaneously before the intraperitoneal injection of glucose (t=0 min; 2 g/kg; 5 ml/kg). Tail vein blood was sampled at time t=0 (before glucose administration), 15, 30, 45, 60, 90, and 120 min for measurements of blood glucose.

[4] = target: T2, human GIP R (Homo sapiens, UniProt P48546); assay: Human GIP receptor (GIP R) activity assay, cAMP induction (AlphaScreen cAMP kit); format: cell-based; conditions: HEK293 cells expressing the human GIP R; cAMP induction, 15 min at 37° C.; average values of multiple determinations; read-out: GIP R (EC50 in nM)
T2 construct: expressed in transfected cells
T2 sequence (P48546 22-466): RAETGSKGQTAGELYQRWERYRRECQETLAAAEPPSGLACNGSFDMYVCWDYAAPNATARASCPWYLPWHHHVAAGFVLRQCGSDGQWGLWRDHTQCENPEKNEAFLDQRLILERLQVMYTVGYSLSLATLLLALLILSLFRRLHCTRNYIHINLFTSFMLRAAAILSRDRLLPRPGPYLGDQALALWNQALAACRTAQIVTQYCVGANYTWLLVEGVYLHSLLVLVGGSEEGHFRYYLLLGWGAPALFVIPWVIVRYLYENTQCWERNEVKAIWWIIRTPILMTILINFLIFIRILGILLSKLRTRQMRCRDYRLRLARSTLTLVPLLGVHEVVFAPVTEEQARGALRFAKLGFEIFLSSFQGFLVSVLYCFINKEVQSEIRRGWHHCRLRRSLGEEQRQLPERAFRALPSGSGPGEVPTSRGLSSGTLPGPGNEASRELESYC
Description: Human GIP Receptor (GIP R) and GLP-1 Receptor (GLP-1 R) Activity Assay
In vitro effects of peptide conjugates of the invention were assessed by measuring the induction of cAMP following stimulation of the respective receptor by GIP, GLP1 or analogues of these, as outlined in the invention, using the AlphaSceen® cAMP kit from Perkin-Elmer according to instructions. Briefly. HEK293 cells expressing the human GIP R or GLP-1 R (stable cell lines generated through transfection of the cDNA for human GIP R or GLP-1 and selection of stable clones) were seeded at 30,000 cells/well in 96-well microtiter plates coated with 0.01% poly-L-lysine, and grown for 1 day in culture in 200 μl growth medium (DMEM, 10% FCS, Penicillin (100 IU/ml), Streptomycin (100 μg/ml)). On the day of analysis, growth medium was removed and the cells were washed once with […] Tyrode's buffer (Tyrode's Salts (9.6 g/1), 10 mM HEPES, pH 7.4). […] The Assay buffer was removed and cells are lysed in 80 μl Lysis buffer (0.1% w/v BSA, 5 mM HEPES, 0.3% v/v Tween-20) per well. From each well 10 μl lysed cells was transferred to a 384-well plate and mixed with 15 μl bead-mix (1 Unit/15 μl anti-cAMP Acceptor Beads, 1 Unit/15 μl Donor Beads, and 1 Unit/15 μl Biotinylated cAMP in Assay Buffer). The plates were mixed and incubated in the dark for an hour at room temperature before measuring using an Envision™ plate reader (Perkin-Elmer).

EC50 [4] | Structure (SMILES) | EC50 [1] | half-life [2] | Effect on glucose tolerance as compared to vehicle [3] | Reduction in blood glucose compared with liraglutide ([3]; time t=60 min, p<0.05 vs. liraglutide)
 | CCCCCCCCCCCCCCCC(=O)N[C@@H](CCC(=O)NCCCC[C@H](NC(=O)[C@H](CCCCN)NC(=O)[C@H](CC(=O)O)NC(=O)[C@H](CC(C)C)NC(=O)C(C)(C)NC(=O)[C@@H](NC(=O)[C@H](CO)NC(=O)[C@H](Cc1ccc(O)cc1)NC(=O)[C@H](CC(=O)O)NC(=O)[C@H](CO)NC(=O)[C@@H](NC(=O)[C@H](Cc1ccccc1)NC(=O)[C@@H](NC(=O)CNC(=O)[C@H](CCC(=O)O)NC(=O)C(C)(C)NC(=O)[C@@H](N)Cc1ccc(O)cc1)[C@@H](C)O)[C@@H](C)O)[C@@H](C)CC)C(=O)N[C@@H](C)C(=O)N[C@@H](CCC(N)=O)C(=O)N[C@@H](CCCNC(=N)N)C(=O)N[C@@H](C)C(=O)N[C@@H](Cc1ccccc1)C(=O)N[C@H](C(=O)N[C@@H](CCC(=O)O)C(=O)N[C@@H](Cc1c[nH]c2ccccc12)C(=O)N[C@@H](CC(C)C)C(=O)N[C@@H](CC(C)C)C(=O)N[C@@H](C)C(=O)N[C@@H](CCC(N)=O)C(=O)NCC(=O)N1CCC[C@H]1C(=O)N[C@@H](CO)C(=O)N[C@@H](CO)C(=O)NCC(=O)N[C@@H](C)C(=O)N1CCC[C@H]1C(=O)N1CCC[C@H]1C(=O)N1CCC[C@H]1C(=O)N[C@@H](CO)C(N)=O)C(C)C)C(=O)O [Compound 32] (H-Y[Aib]EGTFTSDYSI[Aib]LDKK([γGlu-Palmitoyl])AQRAFVEWLLAQGPSSGAPPPS-NH2) | 0.018 nM | 204 min | significantly improved glucose tolerance | 
 | CCCCCCCCCCCCCCCC(=O)N[C@@H](CCC(=O)NCCCC[C@H](NC(=O)[C@H](CCCCN)NC(=O)[C@H](CC(=O)O)NC(=O)[C@H](CC(C)C)NC(=O)[C@H](Cc1ccc(O)cc1)NC(=O)[C@@H](NC(=O)[C@H](CO)NC(=O)[C@H](Cc1ccc(O)cc1)NC(=O)[C@H](CC(=O)O)NC(=O)[C@H](CO)NC(=O)[C@@H](NC(=O)[C@H](Cc1ccccc1)NC(=O)[C@@H](NC(=O)CNC(=O)[C@H](CCC(=O)O)NC(=O)C(C)(C)NC(=O)[C@@H](N)Cc1ccc(O)cc1)[C@@H](C)O)[C@@H](C)O)[C@@H](C)CC)C(=O)N[C@@H](C)C(=O)N[C@@H](CCC(N)=O)C(=O)N[C@@H](CCCNC(=N)N)C(=O)N[C@@H](C)C(=O)N[C@@H](Cc1ccccc1)C(=O)N[C@H](C(=O)N[C@@H](CCC(=O)O)C(=O)N[C@@H](Cc1c[nH]c2ccccc12)C(=O)N[C@@H](CC(C)C)C(=O)N[C@@H](CC(C)C)C(=O)N[C@@H](C)C(=O)N[C@@H](CCC(N)=O)C(=O)NCC(=O)N1CCC[C@H]1C(=O)N[C@@H](CO)C(=O)N[C@@H](CO)C(=O)NCC(=O)N[C@@H](C)C(=O)N1CCC[C@H]1C(=O)N1CCC[C@H]1C(=O)N1CCC[C@H]1C(=O)N[C@@H](CO)C(N)=O)C(C)C)C(=O)O [Compound 33] (H-Y[Aib]EGTFTSDYSIYLDKK([γGlu-Palmitoyl])AQRAFVEWLLAQGPSSGAPPPS-NH2) | 0.031 nM | 222 min | significantly improved glucose tolerance | statistically significant greater reduction
0.007 nM | CC[C@H](C)[C@H](NC(=O)[C@H](CO)NC(=O)[C@H](Cc1ccc(O)cc1)NC(=O)[C@H](CC(=O)O)NC(=O)[C@H](CO)NC(=O)[C@@H](NC(=O)[C@H](Cc1ccccc1)NC(=O)[C@@H](NC(=O)CNC(=O)[C@H](CCC(=O)O)NC(=O)C(C)(C)NC(=O)[C@@H](N)Cc1ccc(O)cc1)[C@@H](C)O)[C@@H](C)O)C(=O)N[C@@H](Cc1ccc(O)cc1)C(=O)N[C@@H](CC(C)C)C(=O)N[C@@H](CC(=O)O)C(=O)N[C@@H](CCCCN)C(=O)N[C@@H](CCCCN)C(=O)N[C@@H](C)C(=O)N[C@@H](C)C(=O)N[C@@H](Cc1c[nH]cn1)C(=O)N[C@@H](CC(=O)O)C(=O)N[C@@H](Cc1ccccc1)C(=O)N[C@H](C(=O)N[C@@H](CCC(=O)O)C(=O)N[C@@H](Cc1c[nH]c2ccccc12)C(=O)N[C@@H](CC(C)C)C(=O)N[C@@H](CC(C)C)C(=O)N[C@@H](CO)C(=O)N[C@@H](C)C(N)=O)C(C)C [Compound 42] (H-Y[Aib]EGTFTSDYSIYLDKKAAHDFVEWLLSA-NH2) | 0.012 nM |  |  | 
